Legend:
[1] = Laser flash photolysis: nucleophilic addition reaction rate constant and time constant with glutathione; type: physicochemical; conditions: pH 7.4, 10 mM sodium phosphate buffer, 295 K
Method: Change over time of transient absorption of the probe compounds of the present invention at various glutathione concentrations was measured using laser flash photolysis, and a nucleophilic addition reaction rate constant k and a nucleophilic addition reaction rime constant T in the nucleophilic addition-dissociation equilibrium reaction between glutathione and the probe compounds of the present invention were calculated. The solution conditions were […] aqueous solution and pH 7.4 (10 mM sodium phosphate buffer). A measurement condition was 295 K and a light source was a 10 mJ/pulse XeCl excimer laser ([…]).

[2] = Measurement of the fluorescence quantum yield; type: physicochemical; conditions: 1 μM probe, 1% DMSO aqueous solution, pH 7.4 (200 mM sodium phosphate buffer)
Method: Fluorescence quantum yield of the probe compounds according to the present invention was measured. The solution conditions were 1 μM probe compound, 1% DMSO aqueous solution, and pH 7.4 (200 mM sodium phosphate buffer).

| SMILES | k (nucleophilic addition reaction rate constant) ([1]; glutathione 0.5 mM) [s⁻¹] | τ (nucleophilic addition reaction time constant) ([1]; glutathione 0.5 mM) [ms] | k (nucleophilic addition reaction rate constant) ([1]; glutathione 1 mM) [s⁻¹] | τ (nucleophilic addition reaction time constant) ([1]; glutathione 1 mM) [ms] | k (nucleophilic addition reaction rate constant) ([1]; glutathione 5 mM) [s⁻¹] | τ (nucleophilic addition reaction time constant) ([1]; glutathione 5 mM) [ms] | k (nucleophilic addition reaction rate constant) ([1]; glutathione 10 mM) [s⁻¹] | τ (nucleophilic addition reaction time constant) ([1]; glutathione 10 mM) [ms] | k (nucleophilic addition reaction rate constant) ([1]; glutathione 0.1 mM) [s⁻¹] | τ (nucleophilic addition reaction time constant) ([1]; glutathione 0.1 mM) [ms] | Fluorescence quantum yield [2] |
| --- | --- | --- | --- | --- | --- | --- | --- | --- | --- | --- | --- |
| C[Si]1(C)C2=CC(=N)C=CC2=C(c2ccccc2)c2ccc(N)cc21 [Compound 2] | 1.21 | 823 | 2.05 | 487 | 11.0 | 90.7 | 25.0 | 40.1 |  |  |  |
| CN(C)c1ccc2c(c1)[Si](C)(C)C1=CC(=[N+](C)C)C=CC1=C2 [Compound 5] | 95.8 | 10.4 | 176.2 | 5.67 | 976 | 1.02 | 2290 | 0.436 | 14.3 | 69.9 | 0.39 |
| CN(C)c1ccc2c(c1)[Si](C)(C)C1=C/C(=[N+](\C)CCCC(=O)O)C=CC1=C2 [Compound 12] | 42.8 | 23.4 | 75.6 | 13.2 | 444 | 2.25 | 1080 | 0.93 | 7.49 | 134 | 0.46 |
| CN(C)c1ccc2c(c1)[Si](C)(C)C1=C/C(=[N+](\C)CCCC(=O)NCc3ccc(COc4nc(N)nc5[nH]cnc45)cc3)C=CC1=C2 [Compound 14] |  |  |  |  |  |  |  |  |  |  | 0.27 |
| CN(C)c1ccc2c(c1)[Si](C)(C)C1=C/C(=[N+](\C)CCCC(=O)NCCOCCOCCCCCCCl)C=CC1=C2 [Compound 16] |  |  |  |  |  |  |  |  |  |  | 0.49 |
| CN(C)c1ccc2c(c1)[Si](C)(C)C1=C/C(=[N+](\C)CCCC(=O)ON3C(=O)CCC3=O)C=CC1=C2 [Compound 17] |  |  |  |  |  |  |  |  |  |  | 0.46 |
| CC1(C)C2=CC(=N)C=CC2=Cc2ccc(N)cc21 [Compound 28] | 195 | 5.12 | 371 | 2.69 | 2170 | 0.46 | 5260 | 0.19 | 21.1 | 47.5 | 0.70 |
| CC1(C)C2=C/C(=N/CCCC(=O)O)C=CC2=Cc2ccc(N)cc21 [Compound 32] | 61.7 | 16.2 | 106 | 9.45 | 592 | 1.69 | 1410 | 0.71 | 15.8 | 63.1 | 0.69 |
